Publication PMC4457528, “Identification of Novel Small Molecule Inhibitors of Oncogenic RET Kinase” (PLoS ONE, 2015)
Where two headings read alike, the source gives them in different places.

How the values were obtained:
Assay in all cases: KinomeScan kinase panel, single concentration 10 µM
Assay type in all cases: binding
[1] = molecular target: T1, KinomeScan kinase panel (Homo sapiens, UniProt Q2M2I8); conditions: AAK1, 10 µM; read-out: score (%)
T1 construct: purchased DiscoveRx (KinomeScan)

[2] = molecular target: T2, KinomeScan kinase panel (Homo sapiens, UniProt P00519, F317L); conditions: 10 µM, read-out: score (%)
T2 construct: purchased DiscoveRx (KinomeScan)

[3] = molecular target: T3, KinomeScan kinase panel (Homo sapiens, UniProt Q8TDC3); conditions: BRSK1, 10 µM; read-out: score (%)
T3 construct: purchased DiscoveRx (KinomeScan)
T3 sequence (Q8TDC3 1-778): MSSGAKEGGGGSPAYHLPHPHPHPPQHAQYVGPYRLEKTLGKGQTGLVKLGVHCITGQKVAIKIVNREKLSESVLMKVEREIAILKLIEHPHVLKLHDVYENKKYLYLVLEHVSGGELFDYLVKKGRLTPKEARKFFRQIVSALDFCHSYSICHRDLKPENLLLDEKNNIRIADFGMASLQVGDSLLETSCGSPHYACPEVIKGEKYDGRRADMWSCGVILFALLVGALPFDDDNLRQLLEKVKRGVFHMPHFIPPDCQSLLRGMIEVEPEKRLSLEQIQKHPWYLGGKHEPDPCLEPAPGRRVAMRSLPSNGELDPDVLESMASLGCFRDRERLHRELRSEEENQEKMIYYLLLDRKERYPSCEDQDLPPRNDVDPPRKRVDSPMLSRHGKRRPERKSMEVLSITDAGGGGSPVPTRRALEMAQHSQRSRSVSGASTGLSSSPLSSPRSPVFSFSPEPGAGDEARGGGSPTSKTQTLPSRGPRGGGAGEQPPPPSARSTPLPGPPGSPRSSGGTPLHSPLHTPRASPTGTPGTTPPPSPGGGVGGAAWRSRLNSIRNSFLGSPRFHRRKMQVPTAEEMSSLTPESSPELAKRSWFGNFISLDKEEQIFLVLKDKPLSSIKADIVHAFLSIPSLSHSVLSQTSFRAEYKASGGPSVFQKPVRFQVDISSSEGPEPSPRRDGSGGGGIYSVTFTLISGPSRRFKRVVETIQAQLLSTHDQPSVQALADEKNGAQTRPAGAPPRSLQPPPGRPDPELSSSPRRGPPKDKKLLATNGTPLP

[4] = molecular target: T4, KinomeScan kinase panel (Homo sapiens, UniProt P36888, K663Q); conditions: FLT3(K663Q), 10 µM; read-out: score (%)
T4 construct: purchased DiscoveRx (KinomeScan)
T4 sequence (P36888 27-993 K663Q): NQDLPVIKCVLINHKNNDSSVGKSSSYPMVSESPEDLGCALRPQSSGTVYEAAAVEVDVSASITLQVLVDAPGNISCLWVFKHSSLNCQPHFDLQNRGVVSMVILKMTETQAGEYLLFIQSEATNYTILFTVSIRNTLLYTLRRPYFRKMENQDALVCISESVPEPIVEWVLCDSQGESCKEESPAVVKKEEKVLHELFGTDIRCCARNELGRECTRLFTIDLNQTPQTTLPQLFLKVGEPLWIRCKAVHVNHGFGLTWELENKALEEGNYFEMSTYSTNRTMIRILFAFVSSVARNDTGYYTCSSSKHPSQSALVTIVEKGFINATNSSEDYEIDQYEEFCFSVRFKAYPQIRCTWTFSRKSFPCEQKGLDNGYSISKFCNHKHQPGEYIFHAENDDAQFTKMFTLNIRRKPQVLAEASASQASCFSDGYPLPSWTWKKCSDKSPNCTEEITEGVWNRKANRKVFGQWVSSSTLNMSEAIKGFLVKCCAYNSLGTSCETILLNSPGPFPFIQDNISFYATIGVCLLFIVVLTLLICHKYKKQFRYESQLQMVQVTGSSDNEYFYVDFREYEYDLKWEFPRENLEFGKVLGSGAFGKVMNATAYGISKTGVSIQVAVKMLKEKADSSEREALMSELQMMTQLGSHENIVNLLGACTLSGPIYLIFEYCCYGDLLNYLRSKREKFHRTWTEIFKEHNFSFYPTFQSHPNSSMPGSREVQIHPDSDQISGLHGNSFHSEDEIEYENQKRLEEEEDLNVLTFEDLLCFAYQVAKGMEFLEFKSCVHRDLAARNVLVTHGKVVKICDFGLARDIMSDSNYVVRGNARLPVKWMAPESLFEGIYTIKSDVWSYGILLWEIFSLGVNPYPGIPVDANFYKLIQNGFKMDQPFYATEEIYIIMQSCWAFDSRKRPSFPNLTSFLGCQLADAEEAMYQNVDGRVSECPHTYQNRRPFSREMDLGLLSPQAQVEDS

[5] = molecular target: T5, KinomeScan kinase panel (Homo sapiens, UniProt P42336, E545K); conditions: PIK3CA(E545K), 10 µM; read-out: score (%)
T5 construct: purchased DiscoveRx (KinomeScan)

[6] = molecular target: T6, KinomeScan kinase panel (Homo sapiens, UniProt P09769); conditions: FGR, 10 µM; read-out: score (%)
T6 construct: purchased DiscoveRx (KinomeScan)

[7] = molecular target: T7, KinomeScan kinase panel (Homo sapiens, UniProt P06239); conditions: LCK, 10 µM; read-out: score (%)
T7 construct: purchased DiscoveRx (KinomeScan)

[8] = molecular target: T8, KinomeScan kinase panel (Homo sapiens, UniProt P31152); conditions: ERK4, 10 µM; read-out: score (%)
T8 construct: purchased DiscoveRx (KinomeScan)

[9] = molecular target: T9, KinomeScan kinase panel (Homo sapiens, UniProt Q08881); conditions: ITK, 10 µM
T9 construct: purchased DiscoveRx (KinomeScan)
T9 sequence (Q08881 1-620): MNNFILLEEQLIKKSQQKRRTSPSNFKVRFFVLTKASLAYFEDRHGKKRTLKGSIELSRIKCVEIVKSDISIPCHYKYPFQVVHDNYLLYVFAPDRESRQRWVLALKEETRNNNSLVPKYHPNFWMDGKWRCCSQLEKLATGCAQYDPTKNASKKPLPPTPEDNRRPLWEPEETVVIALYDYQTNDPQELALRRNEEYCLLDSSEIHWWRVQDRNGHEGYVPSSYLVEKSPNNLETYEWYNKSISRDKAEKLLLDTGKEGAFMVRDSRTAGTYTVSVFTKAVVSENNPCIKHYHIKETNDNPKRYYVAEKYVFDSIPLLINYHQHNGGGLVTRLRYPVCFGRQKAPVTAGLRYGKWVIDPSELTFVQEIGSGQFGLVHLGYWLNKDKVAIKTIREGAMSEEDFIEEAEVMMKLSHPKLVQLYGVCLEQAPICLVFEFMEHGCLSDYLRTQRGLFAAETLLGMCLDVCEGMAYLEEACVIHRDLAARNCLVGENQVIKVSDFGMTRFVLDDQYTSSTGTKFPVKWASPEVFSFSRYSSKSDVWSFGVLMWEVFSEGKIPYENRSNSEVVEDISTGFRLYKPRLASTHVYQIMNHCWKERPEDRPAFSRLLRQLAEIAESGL

[10] = molecular target: T10, KinomeScan kinase panel (Homo sapiens, UniProt Q05655); conditions: 10 µM, read-out: score (%)
T10 construct: purchased DiscoveRx (KinomeScan)
T10 sequence (Q05655 whole entry): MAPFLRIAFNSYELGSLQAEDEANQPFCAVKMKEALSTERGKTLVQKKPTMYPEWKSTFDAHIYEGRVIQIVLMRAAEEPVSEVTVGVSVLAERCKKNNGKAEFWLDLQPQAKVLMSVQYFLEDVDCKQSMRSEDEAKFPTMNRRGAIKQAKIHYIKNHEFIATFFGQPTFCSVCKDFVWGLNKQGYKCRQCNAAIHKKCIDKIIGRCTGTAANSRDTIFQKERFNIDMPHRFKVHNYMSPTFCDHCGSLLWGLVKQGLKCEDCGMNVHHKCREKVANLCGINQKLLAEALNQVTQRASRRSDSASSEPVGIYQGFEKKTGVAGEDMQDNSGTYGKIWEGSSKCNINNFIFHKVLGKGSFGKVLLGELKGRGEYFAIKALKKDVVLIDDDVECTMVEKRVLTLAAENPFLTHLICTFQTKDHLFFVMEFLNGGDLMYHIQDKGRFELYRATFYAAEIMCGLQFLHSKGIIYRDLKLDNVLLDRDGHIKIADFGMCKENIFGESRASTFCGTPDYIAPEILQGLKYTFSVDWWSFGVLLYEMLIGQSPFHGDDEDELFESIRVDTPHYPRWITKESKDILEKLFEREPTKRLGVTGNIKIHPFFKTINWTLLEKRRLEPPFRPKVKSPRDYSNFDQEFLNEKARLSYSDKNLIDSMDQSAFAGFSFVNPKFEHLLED

T2 sequence (P00519 whole entry F317L): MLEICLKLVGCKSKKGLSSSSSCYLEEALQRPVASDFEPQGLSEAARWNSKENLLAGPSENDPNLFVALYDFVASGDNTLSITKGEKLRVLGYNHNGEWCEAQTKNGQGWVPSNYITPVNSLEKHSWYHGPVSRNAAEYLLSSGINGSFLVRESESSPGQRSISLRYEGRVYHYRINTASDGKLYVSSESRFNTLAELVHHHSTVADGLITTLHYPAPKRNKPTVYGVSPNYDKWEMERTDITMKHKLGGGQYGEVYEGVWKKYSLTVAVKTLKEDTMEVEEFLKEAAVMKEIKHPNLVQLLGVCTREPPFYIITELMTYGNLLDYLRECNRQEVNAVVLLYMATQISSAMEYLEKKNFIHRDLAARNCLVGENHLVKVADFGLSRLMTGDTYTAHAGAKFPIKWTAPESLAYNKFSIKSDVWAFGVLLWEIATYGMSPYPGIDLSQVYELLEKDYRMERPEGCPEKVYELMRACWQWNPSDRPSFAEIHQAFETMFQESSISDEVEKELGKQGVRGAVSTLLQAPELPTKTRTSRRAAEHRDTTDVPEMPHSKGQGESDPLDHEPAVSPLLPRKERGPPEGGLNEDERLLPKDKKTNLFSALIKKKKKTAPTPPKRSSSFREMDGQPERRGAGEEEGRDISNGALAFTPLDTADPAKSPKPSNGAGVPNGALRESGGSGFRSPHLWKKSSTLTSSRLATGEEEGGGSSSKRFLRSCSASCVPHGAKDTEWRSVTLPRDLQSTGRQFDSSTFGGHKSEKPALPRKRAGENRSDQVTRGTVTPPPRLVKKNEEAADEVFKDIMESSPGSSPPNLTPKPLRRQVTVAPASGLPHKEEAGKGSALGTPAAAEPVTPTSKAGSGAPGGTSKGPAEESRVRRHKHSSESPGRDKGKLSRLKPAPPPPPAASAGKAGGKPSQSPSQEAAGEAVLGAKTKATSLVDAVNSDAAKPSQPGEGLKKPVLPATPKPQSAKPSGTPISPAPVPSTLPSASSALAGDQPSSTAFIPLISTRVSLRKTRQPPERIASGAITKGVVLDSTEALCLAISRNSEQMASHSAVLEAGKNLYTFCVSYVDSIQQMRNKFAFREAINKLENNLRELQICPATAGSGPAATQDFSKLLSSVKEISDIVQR
T7 sequence (P06239 whole entry): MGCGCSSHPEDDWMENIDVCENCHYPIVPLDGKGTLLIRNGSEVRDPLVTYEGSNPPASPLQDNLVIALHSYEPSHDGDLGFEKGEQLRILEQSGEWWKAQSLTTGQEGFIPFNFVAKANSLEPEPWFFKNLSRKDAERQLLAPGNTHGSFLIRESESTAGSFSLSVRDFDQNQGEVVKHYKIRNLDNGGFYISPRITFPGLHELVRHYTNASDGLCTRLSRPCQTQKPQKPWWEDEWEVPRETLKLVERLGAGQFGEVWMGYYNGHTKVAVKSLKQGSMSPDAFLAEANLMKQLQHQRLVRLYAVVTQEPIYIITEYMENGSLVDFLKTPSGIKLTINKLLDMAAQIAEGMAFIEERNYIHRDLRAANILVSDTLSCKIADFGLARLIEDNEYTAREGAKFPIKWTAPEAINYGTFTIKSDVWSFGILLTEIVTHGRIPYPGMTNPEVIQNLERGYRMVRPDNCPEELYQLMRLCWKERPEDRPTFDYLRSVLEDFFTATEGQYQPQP
T1 sequence (Q2M2I8 whole entry): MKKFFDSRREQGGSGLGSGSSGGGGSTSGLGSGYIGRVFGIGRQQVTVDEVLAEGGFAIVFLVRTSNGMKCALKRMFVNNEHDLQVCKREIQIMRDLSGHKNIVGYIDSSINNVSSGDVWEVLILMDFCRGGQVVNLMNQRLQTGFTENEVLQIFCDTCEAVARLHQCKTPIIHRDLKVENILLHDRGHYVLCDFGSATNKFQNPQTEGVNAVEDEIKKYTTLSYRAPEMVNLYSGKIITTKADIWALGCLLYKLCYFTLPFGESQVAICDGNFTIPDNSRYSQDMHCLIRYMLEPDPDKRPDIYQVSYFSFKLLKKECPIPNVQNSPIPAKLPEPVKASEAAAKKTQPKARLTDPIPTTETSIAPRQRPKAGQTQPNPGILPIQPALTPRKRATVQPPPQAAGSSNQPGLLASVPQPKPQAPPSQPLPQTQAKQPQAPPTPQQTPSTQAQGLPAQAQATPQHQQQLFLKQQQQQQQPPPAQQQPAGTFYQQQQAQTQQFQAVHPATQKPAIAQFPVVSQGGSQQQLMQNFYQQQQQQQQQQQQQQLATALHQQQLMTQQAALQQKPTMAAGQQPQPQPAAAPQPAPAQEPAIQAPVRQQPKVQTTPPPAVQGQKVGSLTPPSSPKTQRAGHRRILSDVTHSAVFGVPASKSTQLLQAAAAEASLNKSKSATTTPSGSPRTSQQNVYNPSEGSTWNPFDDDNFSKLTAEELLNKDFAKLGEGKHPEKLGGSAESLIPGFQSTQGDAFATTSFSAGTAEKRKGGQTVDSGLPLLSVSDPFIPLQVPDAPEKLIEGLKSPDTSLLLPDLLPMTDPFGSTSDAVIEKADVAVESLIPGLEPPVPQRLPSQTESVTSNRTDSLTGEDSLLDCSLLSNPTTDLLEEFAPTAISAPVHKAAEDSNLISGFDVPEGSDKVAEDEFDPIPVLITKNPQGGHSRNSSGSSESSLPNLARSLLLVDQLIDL
T8 sequence (P31152 whole entry): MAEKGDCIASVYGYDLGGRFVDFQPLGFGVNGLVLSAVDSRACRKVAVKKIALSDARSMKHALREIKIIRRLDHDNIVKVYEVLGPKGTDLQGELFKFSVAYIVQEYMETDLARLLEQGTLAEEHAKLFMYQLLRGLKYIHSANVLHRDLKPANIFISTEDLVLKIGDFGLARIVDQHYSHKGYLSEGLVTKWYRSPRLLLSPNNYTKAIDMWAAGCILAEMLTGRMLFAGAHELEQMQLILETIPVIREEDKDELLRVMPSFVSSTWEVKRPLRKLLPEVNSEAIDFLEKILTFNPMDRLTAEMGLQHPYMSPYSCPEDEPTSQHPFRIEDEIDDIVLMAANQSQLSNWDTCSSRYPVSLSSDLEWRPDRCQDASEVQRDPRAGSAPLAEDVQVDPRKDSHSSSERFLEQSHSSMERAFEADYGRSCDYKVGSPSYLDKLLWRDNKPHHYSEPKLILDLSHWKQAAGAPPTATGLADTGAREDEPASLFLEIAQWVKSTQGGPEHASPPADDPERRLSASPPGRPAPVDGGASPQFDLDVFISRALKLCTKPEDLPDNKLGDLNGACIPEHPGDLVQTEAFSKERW
T5 sequence (P42336 whole entry E545K): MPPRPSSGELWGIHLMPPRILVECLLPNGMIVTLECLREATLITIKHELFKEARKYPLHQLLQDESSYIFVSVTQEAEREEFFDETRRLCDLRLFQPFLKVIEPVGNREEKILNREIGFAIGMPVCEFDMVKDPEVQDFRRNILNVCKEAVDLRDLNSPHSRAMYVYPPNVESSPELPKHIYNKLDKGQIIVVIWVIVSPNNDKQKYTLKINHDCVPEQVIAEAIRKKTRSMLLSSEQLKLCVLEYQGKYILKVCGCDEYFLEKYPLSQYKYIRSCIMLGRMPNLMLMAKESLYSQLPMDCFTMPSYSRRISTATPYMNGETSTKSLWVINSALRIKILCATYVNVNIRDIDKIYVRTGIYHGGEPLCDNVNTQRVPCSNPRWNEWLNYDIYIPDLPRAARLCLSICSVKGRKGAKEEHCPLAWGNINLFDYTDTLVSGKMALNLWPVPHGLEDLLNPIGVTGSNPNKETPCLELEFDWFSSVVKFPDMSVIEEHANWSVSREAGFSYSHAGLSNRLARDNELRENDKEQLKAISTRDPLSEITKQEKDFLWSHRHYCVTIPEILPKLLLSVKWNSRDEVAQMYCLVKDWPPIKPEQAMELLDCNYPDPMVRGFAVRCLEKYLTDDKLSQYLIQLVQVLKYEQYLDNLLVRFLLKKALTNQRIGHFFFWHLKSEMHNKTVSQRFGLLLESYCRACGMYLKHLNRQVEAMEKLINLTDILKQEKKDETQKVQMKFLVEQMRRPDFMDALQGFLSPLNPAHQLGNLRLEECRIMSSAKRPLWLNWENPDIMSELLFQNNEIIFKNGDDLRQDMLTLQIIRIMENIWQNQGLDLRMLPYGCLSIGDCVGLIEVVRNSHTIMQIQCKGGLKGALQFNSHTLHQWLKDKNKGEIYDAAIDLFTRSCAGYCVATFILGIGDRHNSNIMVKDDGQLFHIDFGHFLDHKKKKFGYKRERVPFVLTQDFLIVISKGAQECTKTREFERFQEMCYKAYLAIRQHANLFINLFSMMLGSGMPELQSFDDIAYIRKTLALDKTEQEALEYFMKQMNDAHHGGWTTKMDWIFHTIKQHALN

SMILES	remaining binding at 10 µM [1]	remaining binding at 10 µM ([2]; ABL1(F317L))	remaining binding at 10 µM [3]	remaining binding at 10 µM [4]	remaining binding at 10 µM [5]	remaining binding at 10 µM [6]	remaining binding at 10 µM [7]	remaining binding at 10 µM [8]	score (%) [9]	remaining binding at 10 µM ([10]; PRKCD)	remaining binding at 10 µM ([2]; ABL1(F317L)-nonphosphorylated)	remaining binding at 10 µM ([2]; ABL1(F317L)-phosphorylated)	remaining binding at 10 µM ([10]; kinase PRKCD)
CCN1CCN(Cc2ccc(NC(=O)c3ccc(C)c(NC(=O)c4cncc(-c5cccs5)c4)c3)cc2C(F)(F)F)CC1 [ALW-II-41-27]	> 30%	0.2%	> 30%	1%	> 30%	0.2%	0.2%	> 30%	8.6%	1.2%	–	–	–
CCN1CCN(Cc2ccc(NC(=O)c3ccc(C)c(/C=C/c4cnc5[nH]ccc5c4Cl)c3)cc2C(F)(F)F)CC1 [HG-6-63-01, (E)-3-(2-(4-chloro-1H-pyrrolo[2,3-b]pyridin-5-yl)vinyl)-N-(4-((4-ethylpiperazin-1-yl)methyl)-3-(trifluoromethyl)phenyl)-4-methylbenzamide]	27%	0.1%	> 30%	0%	> 30%	0.35%	0.1%	> 30%	21%	> 30%	–	–	–
CCN1CCN(Cc2ccc(NC(=O)c3ccc(C)c(C#Cc4cccnc4)c3)cc2C(F)(F)F)CC1 [XMD15-44]	> 30%	–	> 30%	0%	85%	0%	0.05%	> 30%	nb (Hits values higher than 30% were considered negative (no binding: nb))	–	0%	0.85%	39%
